Patent US10030012B2, “Piperidin-1-yl and azepin-1-yl carboxylates as muscarinic M4 receptor agonists” (Heptares Therapeutics Limited, priority 2013, dated 2018)

Tests used:
human M4 receptor = human M4 receptor (Homo sapiens (Human), UniProt P08173); assay: In vitro M4 functional assay (intracellular calcium, FLiPR Tetra); assay type: cell-based; conditions: for EC50: CHOK1 cells stably expressing human M4 receptor and Gα16, calcium flux; for Emax: relative efficacy to an EC100 concentration of acetylcholine, read-out: M4 % RE
Sequence of human M4 receptor (P08173 whole entry): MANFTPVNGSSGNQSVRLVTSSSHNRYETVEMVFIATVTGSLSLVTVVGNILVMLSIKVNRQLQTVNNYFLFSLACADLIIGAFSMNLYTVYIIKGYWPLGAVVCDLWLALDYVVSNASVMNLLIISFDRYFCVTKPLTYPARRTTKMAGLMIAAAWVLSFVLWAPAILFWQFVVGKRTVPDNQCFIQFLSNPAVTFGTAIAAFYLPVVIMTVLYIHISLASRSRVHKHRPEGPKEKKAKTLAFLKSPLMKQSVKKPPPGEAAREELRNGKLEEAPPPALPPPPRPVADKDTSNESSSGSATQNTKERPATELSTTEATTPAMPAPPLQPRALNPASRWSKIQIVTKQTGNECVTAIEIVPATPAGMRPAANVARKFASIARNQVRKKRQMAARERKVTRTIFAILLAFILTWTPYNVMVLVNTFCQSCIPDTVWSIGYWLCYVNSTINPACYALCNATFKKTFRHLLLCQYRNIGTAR
In short: (§1)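 CHOK1 cells stably expressing human M4 or M2 with Gα16, loaded with Calcium 5 dye 45 min at 37° C in HBSS/HEPES/BSA/probenecid pH 7.4. Fluorescence read 5 min after compound; EC50 from ten-point half-log curves, duplicate wells, four-parameter fit; efficacy relative to EC100 acetylcholine.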

human M2 receptor = human M2 receptor (Homo sapiens (Human), UniProt P08172); assay: In vitro M2 functional assay (intracellular calcium, FLiPR Tetra); assay type: cell-based; conditions: for M2 EC50 / EC50: CHOK1 cells stably expressing human M2 receptor and Gα16, calcium flux, No Response = no significant response of calcium flux indicative of agonism; for M2 % RE: relative efficacy to an EC100 concentration of acetylcholine
Sequence of human M2 receptor (P08172 whole entry): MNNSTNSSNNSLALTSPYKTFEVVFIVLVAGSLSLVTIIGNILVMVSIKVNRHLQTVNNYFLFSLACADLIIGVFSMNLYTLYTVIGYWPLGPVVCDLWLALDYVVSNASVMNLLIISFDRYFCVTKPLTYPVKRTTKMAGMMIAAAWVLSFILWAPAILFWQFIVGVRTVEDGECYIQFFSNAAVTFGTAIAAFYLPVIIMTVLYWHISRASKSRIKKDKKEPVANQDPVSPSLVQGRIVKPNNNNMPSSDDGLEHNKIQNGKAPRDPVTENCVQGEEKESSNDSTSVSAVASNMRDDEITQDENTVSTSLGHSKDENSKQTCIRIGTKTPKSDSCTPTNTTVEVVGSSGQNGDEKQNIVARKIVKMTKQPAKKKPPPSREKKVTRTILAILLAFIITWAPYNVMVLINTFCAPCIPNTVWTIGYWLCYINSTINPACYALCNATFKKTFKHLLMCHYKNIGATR
In short: as §1

Structure (SMILES)	EC50 (human M4 receptor)	Emax (human M4 receptor)	M2 EC50 (human M2 receptor)	EC50 (human M2 receptor)	M2 % RE (human M2 receptor)	activation at 10 µM (human M2 receptor; response at 10 μM compound, relative to an EC100 concentration of acetylcholine, read-out: M2 % RE @ 10 μM)
CCOC(=O)N1CCCC(N2CCC(c3nccn3CC(=O)NC3CC3)CC2)CC1 (stereo not drawn) [Example 19, Ethyl 4-(4-{1-[(cyclopropylcarbamoyl)methyl]-1H-imidazol-2-yl}piperidin-1-yl)azepane-1-carboxylate]	1.51 µM	64%	No Response			
CCOC(=O)N1CCCC(N2CCC(c3ncccn3)CC2)CC1 (stereo not drawn) [Example 74, Ethyl 4-[4-(pyrimidin-2-yl)piperidin-1-yl]azepane-1-carboxylate]	1.05 µM	61%		> 10 µM		20%
CCOC(=O)N1CCCC(N2CCC(n3cc(-c4ccc(F)cc4)cn3)CC2)CC1 (stereo not drawn) [Example 18, Ethyl 4-{4-[4-(4-fluorophenyl)-1H-pyrazol-1-yl]piperidin-1-yl}azepane-1-carboxylate]	0.41 µM	45%	No Response			
CCOC(=O)N1CCCC(N2CCC(c3ccncc3OC)CC2)CC1 (stereo not drawn) [Example 44, Ethyl 4-[4-(3-methoxypyridin-4-yl)piperidin-1-yl]azepane-1-carboxylate]	0.37 µM	52%	No Response			
CCOC(=O)N1CCCC(N2CCC(c3cccnc3CC)CC2)CC1 (stereo not drawn) [Example 70, Ethyl 4-[4-(2-ethylpyridin-3-yl)piperidin-1-yl]azepane-1-carboxylate]	0.21 µM	64%	No Response			
CCOC(=O)N1CCCC(N2CCC(c3cccnc3-c3cnn(C(C)C)c3)CC2)CC1 (stereo not drawn) [Example 61, Ethyl 4-(4-{2-[1-(propan-2-yl)-1H-pyrazol-4-yl]pyridin-3-yl}piperidin-1-yl)azepane-1-carboxylate]	0.15 µM	66%	No Response			
CCOC(=O)N1CCCC(N2CCC(c3cccc(OC)n3)CC2)CC1 (stereo not drawn) [Example 33, Ethyl 4-[4-(6-methoxypyridin-2-yl)piperidin-1-yl]azepane-1-carboxylate]	0.18 µM	61%	No Response			
CCOC(=O)N1CCCC(N2CCC(c3nccnc3OC)CC2)CC1 (stereo not drawn) [Example 40, Ethyl 4-[4-(3-methoxypyrazin-2-yl)piperidin-1-yl]azepane-1-carboxylate]	0.14 µM	62%	No Response			
CCOC(=O)N1CCCC(N2CCC(n3nccc3C(=O)N(C)C)CC2)CC1 (stereo not drawn) [Example 21, Ethyl 4-{4-[5-(dimethylcarbamoyl)-1H-pyrazol-1-yl]piperidin-1-yl}azepane-1-carboxylate]	2.68 µM	45%	No Response			
CCOC(=O)N1CCCC(N2CCC(c3cncnc3C)CC2)CC1 (stereo not drawn) [Example 75, Ethyl 4-[4-(4-methylpyrimidin-5-yl)piperidin-1-yl]azepane-1-carboxylate]	1.01 µM	52%	No Response			
CCOC(=O)N1CCC(N2CCC(c3cccc(OCC)n3)CC2)CC1 [Example 72, Ethyl 4-[4-(6-ethoxypyridin-2-yl)piperidin-1-yl]piperidine-1-carboxylate]	0.27 µM	63%		2.02 µM	20%	

Molecules with a lower EC50 (human M4 receptor), results first:

EC50 (human M4 receptor)	Emax (human M4 receptor)	M2 EC50 (human M2 receptor)	EC50 (human M2 receptor)	M2 % RE (human M2 receptor)	activation at 10 µM (human M2 receptor; response at 10 μM compound, relative to an EC100 concentration of acetylcholine, read-out: M2 % RE @ 10 μM)	Structure (SMILES)
0.085 µM	83%	No response				CCOC(=O)N1CCC[C@H](N2CCC(n3cccn3)CC2)CC1 [Example 81, Ethyl (4S)-4-[4-(1H-pyrazol-1-yl)piperidin-1-yl]azepane-1-carboxylate]
0.09 µM	90%	No Response				CCOC(=O)N1CCC(N2CCC(c3cccnc3OC)CC2)CC1 [Example 34, Ethyl 4-[4-(2-methoxypyridin-3-yl)piperidin-1-yl]piperidine-1-carboxylate]
0.03 µM	92%		0.16 µM	75%		CCOC(=O)N1CCCC(N2CCC(c3ncccc3OC)CC2)CC1 (stereo not drawn) [Example 38, Ethyl 4-[4-(3-methoxypyridin-2-yl)piperidin-1-yl]azepane-1-carboxylate]
0.022 µM	84%	No Response				CCOC(=O)N1CCCC(N2CCC(c3cccnc3OCc3cscn3)CC2)CC1 (stereo not drawn) [Example 76, Ethyl 4-{4-[2-(1,3-thiazol-4-ylmethoxy)pyridin-3-yl]piperidin-1-yl}azepane-1-carboxylate]
0.002 µM	95%	No Response				CCOC(=O)N1CCCC(N2CCC(c3cc(Cl)cnc3OC)CC2)CC1 (stereo not drawn) [Example 58, Ethyl 4-[4-(5-chloro-2-methoxypyridin-3-yl)piperidin-1-yl]azepane-1-carboxylate]
